According to patent publication US12649750B2, “Macrocyclic compounds, compositions, and methods of using thereof” (Sionna Therapeutics Inc., priority 2022, dated 2026):

Biological target: T1, NBD1 (Homo sapiens, UniProt P13569)
T1 construct: Purified recombinant NBD1 was produced using previously described methods; made in house
Assay: Aggregation analysis using differential static light scattering (DSLS), thermal stability of NBD1 (ΔTagg)
Type: binding
Conditions: ΔTagg versus DMSO control, NBD1 0.2 mg/ml
Procedure: Example 386. Aggregation Analysis Using Differential Static Light Scattering (DSLS)
Purified recombinant NBD1 was produced using previously described methods (A. Schmidt, J. L. Mendoza, P. J. Thomas (2011) Biochemical and Biophysical Approaches to Probe CFTR Structure (365-376) M. D. Amaral, K. Kunzelmann (eds.), Cystic Fibrosis, Methods in Molecular Biology 741, Springer Science+Business Media). The effect of test compounds on thermal stability of NBD1 was evaluated by differential static light scattering (DSLS) using the Harbinger Stargazer-384 instrument (Epiphyte Three, Toronto, Canada). Test compounds were dissolved and diluted to desired concentrations in 100% DMSO. The compounds or DMSO controls (100 nL) were stamped into wells of a […] low volume optical plate (Corning Inc., Corning, NY) using the Echo 555 acoustic liquid handler (Labcyte Inc., San Jose, CA).
NBD1 protein was diluted to 0.2 mg/ml in S200 buffer (50 mM Tris-HCl, 150 mM NaCl, 5 mM MgCl2, 2 mM ATP, 2 mM DTT, pH7.6) containing 1% glycerol. 10 uL of protein solution was aliquoted into the 384-well plate harboring the test compounds and 10 uL mineral oil was overlaid onto the protein solution, using the epMotion robotic liquid handler (Eppendorf North America, Hauppauge, NY). After placing into the Stargazer instrument, the plate was heated at 1° C. per minute to 70° C. Images were captured from 25° C. to 70° C. every 0.5° C. At the end of the experiment run, instrument software integrated image files and analyzed data automatically. A […] regression curve was generated for each well, representing the increase in light scattering over time. A temperature of aggregation (Tagg) was calculated based on the inflection point of the curve. To better compare data across experiments the average Tagg for DMSO control wells was calculated and subtracted from values for wells containing compounds to obtain a “ΔTagg” value. These ΔTagg values reflect stabilizing efficacy of the compounds. As set forth in Table 2 below, an ΔTagg value less than or equal to 5° C. is marked “A”; a value above 5° C. and less than or equal to 10° C. is marked “B”; a value greater than 10° C. and less than or equal to 25° C. is marked “C”.

T1 sequence (P13569 423-646 limits assumed): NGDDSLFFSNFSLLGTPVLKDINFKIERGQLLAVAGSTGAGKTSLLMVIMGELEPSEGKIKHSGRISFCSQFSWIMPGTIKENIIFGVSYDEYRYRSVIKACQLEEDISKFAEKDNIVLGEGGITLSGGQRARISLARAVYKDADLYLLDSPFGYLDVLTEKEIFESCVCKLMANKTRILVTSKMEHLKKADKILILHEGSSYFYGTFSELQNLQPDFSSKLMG

C[C@@H](Cc1cccc(C2(C)CCCC(C)(C)CS(=O)(=O)CCc3c(c(F)cc4[nH]ccc34)[S+]([O-])c3ccnc(c3)-c3nc2nn3C)n1)C(=O)O (single isomer, unassigned) [Compound 315C]
DSLS 3D (100 μM ΔT): A (an ΔTagg value less than or equal to 5 °C is marked “A”)

C[C@@H](Cc1cccc(C2(C)CCCC(C)(C)CS(=O)(=O)CCc3c(c(F)cc4[nH]ccc34)[S+]([O-])c3ccnc(c3)-c3nc2nn3C)n1)C(=O)O (single isomer, unassigned) [Compound 315D]
DSLS 3D (100 μM ΔT): B (a value above 5 °C and less than or equal to 10 °C is marked “B”)

CC1c2ccnc(c2)-c2nc(nn2C)[C@@](C)(c2cccc(C[C@H](C)C(=O)O)c2)CCCC(C)(C)CS(=O)(=O)CCc2c1c(F)c(F)c1[nH]ccc21 (single isomer, unassigned) [Compound 316A]
DSLS 3D (100 μM ΔT): B (a value above 5 °C and less than or equal to 10 °C is marked “B”)

CC1c2ccnc(c2)-c2nc(nn2C)[C@@](C)(c2cccc(C[C@H](C)C(=O)O)c2)CCCC(C)(C)CS(=O)(=O)CCc2c1c(F)c(F)c1[nH]ccc21 (single isomer, unassigned) [Compound 316B]
DSLS 3D (100 μM ΔT): A (an ΔTagg value less than or equal to 5 °C is marked “A”)

CC1c2ccnc(c2)-c2nc(nn2C)[C@@](C)(c2cccc(C[C@@H](C)C(=O)O)c2)CCCC(C)(C)CS(=O)(=O)CCc2c1c(F)c(F)c1[nH]ccc21 (single isomer, unassigned) [Compound 317A]
DSLS 3D (100 μM ΔT): B (a value above 5 °C and less than or equal to 10 °C is marked “B”)

CC1c2ccnc(c2)-c2nc(nn2C)[C@@](C)(c2cccc(C[C@@H](C)C(=O)O)c2)CCCC(C)(C)CS(=O)(=O)CCc2c1c(F)c(F)c1[nH]ccc21 (single isomer, unassigned) [Compound 317B]
DSLS 3D (100 μM ΔT): A (an ΔTagg value less than or equal to 5 °C is marked “A”)

CC1c2ccnc(c2)-c2nc(nn2C)[C@@](C)(c2cccc(CC(C)(C)C(=O)O)c2)CCCC(C)(C)CS(=O)(=O)CCc2c1c(F)c(F)c1[nH]ccc21 (single isomer, unassigned) [Compound 318A]
DSLS 3D (100 μM ΔT): A (an ΔTagg value less than or equal to 5 °C is marked “A”)

CC1c2ccnc(c2)-c2nc(nn2C)[C@@](C)(c2cccc(CC(C)(C)C(=O)O)c2)CCCC(C)(C)CS(=O)(=O)CCc2c1c(F)c(F)c1[nH]ccc21 (single isomer, unassigned) [Compound 318B]
DSLS 3D (100 μM ΔT): A (an ΔTagg value less than or equal to 5 °C is marked “A”)

C[C@H](Cc1cccc([C@@]2(C)CCCC(C)(C)CS(=O)(=O)CCc3c(c(F)c(F)c4[nH]ccc34)[S+]([O-])c3ccc(F)c(c3)-c3nc2nn3C)c1)C(=O)O (single isomer, unassigned) [Compound 319]
DSLS 3D (100 μM ΔT): B (a value above 5 °C and less than or equal to 10 °C is marked “B”)

Cn1nc2nc1-c1cc(ccc1F)[S+]([O-])c1c(F)c(F)c3[nH]cc(CC(=O)O)c3c1CCS(=O)(=O)CC(C)(C)CCC[C@]2(C)c1ccccc1 (single isomer, unassigned) [Compound 326]
DSLS 3D (100 μM ΔT): A (an ΔTagg value less than or equal to 5 °C is marked “A”)

C[C@@H](Cc1cccc([C@@]2(C)CCCC(C)(C)CS(=O)(=O)CCc3c(c(F)cc4[nH]ccc34)[S+]([O-])c3cccc(c3)-c3coc2n3)c1)C(=O)O (single isomer, unassigned) [Compound 330]
DSLS 3D (100 μM ΔT): A (an ΔTagg value less than or equal to 5 °C is marked “A”)

Cn1nc2nc1-c1cc(ccn1)[S+]([O-])c1c(F)cc3[nH]ccc3c1CCS(=O)(=O)CC(C)(C)CCC[C@]2(C)c1cccc(C[C@H](O)CO)c1 (single isomer, unassigned) [Compound 334]
DSLS 3D (100 μM ΔT): B (a value above 5 °C and less than or equal to 10 °C is marked “B”)

Cn1nc2nc1-c1cc(ccn1)[S+]([O-])c1c(F)cc3[nH]ccc3c1CCS(=O)(=O)CC(C)(C)CCC[C@]2(C)c1cccc(C[C@@H](O)CO)c1 (single isomer, unassigned) [Compound 337]
DSLS 3D (100 μM ΔT): A (an ΔTagg value less than or equal to 5 °C is marked “A”)

Cn1nc2nc1-c1cc(ccn1)[S+]([O-])c1c(F)c(F)c3[nH]ccc3c1CCS(=O)(=O)CC(C)(C)CCC[C@]2(C)c1cccc(C[C@H](O)CO)c1 (single isomer, unassigned) [Compound 341]
DSLS 3D (100 μM ΔT): B (a value above 5 °C and less than or equal to 10 °C is marked “B”)

CNC(=O)[C@H](C)Cc1cccc([C@@]2(C)CCCC(C)(C)CS(=O)(=O)CC(NC)c3c(c(F)c(F)c4[nH]ccc34)Oc3ccc(F)c(c3)-c3nc2nn3C)c1 (single isomer, unassigned) [Compound 360B]
DSLS 3D (100 μM ΔT): B (a value above 5 °C and less than or equal to 10 °C is marked “B”)

CNC(=O)[C@H](C)Cc1cccc([C@@]2(C)CCCC(C)(C)CS(=O)(=O)CC(NC)c3c(c(F)c(F)c4[nH]ccc34)Oc3ccc(F)c(c3)-c3nc2nn3C)c1 (single isomer, unassigned) [Compound 360C]
DSLS 3D (100 μM ΔT): A (an ΔTagg value less than or equal to 5 °C is marked “A”)

Cn1nc2nc1-c1cc(ccn1)[S+]([O-])c1c(F)cc3[nH]cc(CC(=O)O)c3c1CCS(=O)(=O)CC(C)(C)CCC[C@]2(C)c1ccccc1 (single isomer, unassigned) [Compound 365]
DSLS 3D (100 μM ΔT): A (an ΔTagg value less than or equal to 5 °C is marked “A”)

C[C@H](Cc1cccc([C@@]2(C)CCCC(C)(C)CS(=O)(=O)CC(N(C)C)c3c(c(F)c(F)c4[nH]ccc34)Oc3ccc(F)c(c3)-c3nc2nn3C)c1)C(=O)N(C)C (single isomer, unassigned) [Compound 367A]
DSLS 3D (100 μM ΔT): A (an ΔTagg value less than or equal to 5 °C is marked “A”)

C[C@H](Cc1cccc([C@@]2(C)CCCC(C)(C)CS(=O)(=O)CC(N(C)C)c3c(c(F)c(F)c4[nH]ccc34)Oc3ccc(F)c(c3)-c3nc2nn3C)c1)C(=O)N(C)C (single isomer, unassigned) [Compound 367B]
DSLS 3D (100 μM ΔT): A (an ΔTagg value less than or equal to 5 °C is marked “A”)

CNC(=O)[C@@H](C)Cc1cccc([C@@]2(C)CCCC(C)(C)CS(=O)(=O)CC(NC)c3c(c(F)cc4[nH]ccc34)Sc3ccc(F)c(c3)-c3nc2nn3C)c1 (single isomer, unassigned) [Compound 368A]
DSLS 3D (100 μM ΔT): B (a value above 5 °C and less than or equal to 10 °C is marked “B”)

CNC(=O)[C@@H](C)Cc1cccc([C@@]2(C)CCCC(C)(C)CS(=O)(=O)CC(NC)c3c(c(F)cc4[nH]ccc34)Sc3ccc(F)c(c3)-c3nc2nn3C)c1 (single isomer, unassigned) [Compound 368B]
DSLS 3D (100 μM ΔT): A (an ΔTagg value less than or equal to 5 °C is marked “A”)

CC(=O)NC1CS(=O)(=O)CC(C)(C)CCC[C@](C)(c2cccc(C[C@@H](C)C(=O)O)c2)c2nc(n(C)n2)-c2cc(ccc2F)Oc2c(F)c(F)c3[nH]ccc3c21 (single isomer, unassigned) [Compound 369A]
DSLS 3D (100 μM ΔT): C (a value greater than 10 °C and less than or equal to 25 °C is marked “C”)

CC(=O)NC1CS(=O)(=O)CC(C)(C)CCC[C@](C)(c2cccc(C[C@@H](C)C(=O)O)c2)c2nc(n(C)n2)-c2cc(ccc2F)Oc2c(F)c(F)c3[nH]ccc3c21 (single isomer, unassigned) [Compound 369B]
DSLS 3D (100 μM ΔT): B (a value above 5 °C and less than or equal to 10 °C is marked “B”)

C[C@@H](Cc1cccc([C@@]2(C)CCCC(C)(C)CS(=O)(=O)CC(N)c3c(c(F)cc4[nH]ccc34)Sc3ccc(F)c(c3)-c3nc2nn3C)c1)C(N)=O (single isomer, unassigned) [Compound 370A]
DSLS 3D (100 μM ΔT): B (a value above 5 °C and less than or equal to 10 °C is marked “B”)

C[C@@H](Cc1cccc([C@@]2(C)CCCC(C)(C)CS(=O)(=O)CC(N)c3c(c(F)cc4[nH]ccc34)Sc3ccc(F)c(c3)-c3nc2nn3C)c1)C(N)=O (single isomer, unassigned) [Compound 370B]
DSLS 3D (100 μM ΔT): A (an ΔTagg value less than or equal to 5 °C is marked “A”)

COCC(Cc1cccc([C@@]2(C)CCCC(C)(C)CS(=O)(=O)CCc3c(c(F)c(F)c4[nH]ccc34)[S+]([O-])c3ccc(F)c(c3)-c3nc2nn3C)c1)C(=O)O (single isomer, unassigned) [Compound 371]
DSLS 3D (100 μM ΔT): B (a value above 5 °C and less than or equal to 10 °C is marked “B”)

COCC(Cc1cccc([C@@]2(C)CCCC(C)(C)CS(=O)(=O)CCc3c(c(F)c(F)c4[nH]ccc34)[S+]([O-])c3ccc(F)c(c3)-c3nc2nn3C)c1)C(=O)O (single isomer, unassigned) [Compound 372]
DSLS 3D (100 μM ΔT): B (a value above 5 °C and less than or equal to 10 °C is marked “B”)

COCC(Cc1cccc([C@@]2(C)CCCC(C)(C)CS(=O)(=O)CCc3c(c(F)c(F)c4[nH]ccc34)[S+]([O-])c3ccnc(c3)-c3nc2nn3C)c1)C(=O)O (single isomer, unassigned) [Compound 374]
DSLS 3D (100 μM ΔT): B (a value above 5 °C and less than or equal to 10 °C is marked “B”)
